Experimental data taken from article PMC13626384 (Journal of medicinal chemistry, 2025).
Read-outs that look alike come from different tables or passages of the source. Marks after values point to notes of the source that are not given here.

Assays:
[1] = Liver microsomal stability; conditions: mouse liver microsomes
SF188 cell line = assay: Cytotoxicity against SF188 cells; type: cell-based, human
in vitro = conditions: mouse liver microsomes
D283-med cell line = assay: Cytotoxicity against D283-med cells; type: cell-based, human
[2] = PAMPA-BBB permeability assay; conditions: PAMPA-BBB; for recovery / Papp: PAMPA; for recovery: % Recovery; for Papp: Mean Permeability
Caco-2 cells [3] = conditions: ref Literature data; cited from earlier work
Plasma stability = type: in vitro ADME; conditions: for Plasma Stability % remaining: mouse plasma
[4] = target: human immunoproteasome (i20S) β2 (Homo sapiens, UniProt P40306+P49720); assay: Proteasome subunit inhibition, i20S β2; type: biochemical
[5] = system: human foreskin fibroblasts (HFF-1) cell line; assay: Cytotoxicity against HFF-1 cells; type: cell-based; conditions: read-out: HFF-1 IC50; non-cancerous fibroblasts
Caco-2 cells [6] = assay: Caco-2 cell permeability and efflux; type: in vitro ADME, human
[7] = target: human immunoproteasome (i20S) β5 (Homo sapiens, UniProt P20618+P28062); assay: Proteasome subunit inhibition, i20S β5; type: biochemical
H460 cell line = assay: Cytotoxicity against H460 cells; type: cell-based; conditions: read-out: H460 IC50; non-small cell lung cancer cell line
[8] = target: human immunoproteasome (i20S) β1 (Homo sapiens, UniProt P28065+P40306); assay: Proteasome subunit inhibition, i20S β1; type: biochemical
[9] = In vivo pharmacokinetics, plasma and brain; set-up: species or system Male C57BL/6 mice; conditions: mice
Whole blood stability = type: in vitro ADME; conditions: whole blood incubation, 2 hours
[10] = Caco-2 cell permeability and efflux; type: in vitro ADME, human; conditions: human; for Papp A→B / Papp B→A: Caco-2
P-gp = assay: Caco-2 cell permeability and efflux; type: in vitro ADME, human; conditions: human, Caco-2
[11] = target: human constitutive proteasome (c20S) β1 (Homo sapiens, UniProt P28072+Q99436); assay: Proteasome subunit inhibition, c20S β1; type: biochemical
[12] = target: human constitutive proteasome (c20S) β2 (Homo sapiens, UniProt P49720+Q99436); assay: Proteasome subunit inhibition, c20S β2; type: biochemical
[13] = target: human constitutive proteasome (c20S) β5 (Homo sapiens, UniProt P20618+P28074); assay: Proteasome subunit inhibition, c20S β5; type: biochemical
mice = assay: Toxicity observation in the PK study; type: in vivo; conditions: 1 mg/kg i.v.
[14] = Homo sapiens, SF-188, read-out: SF188 IC50, glioblastoma cell line
[15] = Homo sapiens, D283 Med, read-out: D283-med IC50, medulloblastoma cell line
[16] = read-out: D283-med IC50, medulloblastoma cell line
[17] = Caco-2, % Recovery (A-B), Caco-2, A-B direction
[18] = Caco-2, % Recovery (B-A), Caco-2, B-A direction

SMILES | Microsomal Stability Clearance Category [1] | IC50 (SF188 cell line; [14]) [nM] | half-life (in vitro) [min] | IC50 (D283-med cell line; [15]) [nM] | recovery [2] [%] | Papp [2] [×10⁻⁶ cm/s] | IC50 (D283-med cell line; [16]) [nM] | Plasma Stability % remaining (Plasma stability; after 2 hr) | IC50 [4] [nM] | Papp A→B [10] [×10⁻⁶ cm/s] | Papp B→A [10] [×10⁻⁶ cm/s] | recovery [10, 17] [%] | recovery [10, 18] [%] | Efflux Ratio (P-gp) | IC50 [7] [nM] | IC50 [11] [nM] | IC50 [12] [nM] | IC50 [13] [nM] | IC50 [8] [nM] | also measured
CC(C)C[C@H](NC(=O)[C@H](CCc1ccccc1)NC(=O)CN1CCOCC1)C(=O)N[C@@H](Cc1ccccc1)C(=O)N[C@@H](CC(C)C)C(=O)[C@@]1(C)CO1 [Carfilzomib, reference compound] | High | 706 ± 82 | < 5 | 205 ± 24 | 41 | 1.43 |  |  |  |  |  |  |  |  |  |  |  |  |  | Efflux Ratio (Caco-2 cells [3]): 28.6*; remaining at 2 h (Plasma stability; mouse, plasma, Plasma Stability % remaining, after 2 hr): 99%
CC(C)C[C@H](NC(=O)[C@@H]1Cc2c(F)c(F)c(c(F)c2F)S(=O)(=O)c2cccc(c2)CC(=O)N[C@@H](C(C)C)C(=O)N1)C(=O)[C@@]1(C)CO1 [Compound 11, (5S,8S)-3^2,3^3,3^5,3^6-Tetrafluoro-8-isopropyl-N-((S)-4-methyl-1-((R)-2-methyloxiran-2-yl)-1-oxopentan-2-yl)-7,10-dioxo-2-thia-6,9-diaza-1(1,3),3(1,4)-dibenzenacycloundecaphane-5-carboxamide 2,2-dioxide] | Medium |  |  |  |  |  | 6 ± 2 | 88% |  |  |  |  |  |  |  |  |  |  |  | IC50 ([4]; read-out: i20S β2 IC50 ± SD, read 60 to 90 minutes after start): 829 ± 187 nM; Microsomal Stability mCLint [1]: 43 µL/min/mg; Microsomal Stability t1/2 [1]: 32 min; IC50 [5]: 85 ± 7 nM; IC50 (SF188 cell line; read-out: SF188 IC50, glioblastoma cell line): 9.8 ± 1.2 nM; % Recovery (A-B) (Caco-2 cells [6]; Caco-2, A-B direction): 91%; % Recovery (B-A) (Caco-2 cells [6]; Caco-2, B-A direction): 97%; Pe (A-B) (Caco-2 cells [6]; Caco-2, apical to basolateral): 7.2 10^−6 cm/sec; Pe (B-A) (Caco-2 cells [6]; Caco-2, basolateral to apical): 45.4 10^−6 cm/sec; IC50 ([7]; read-out: i20S β5 IC50 ± SD, read 60 to 90 minutes after start): 830 ± 260 nM; % Recovery [2]: 64%; Mean Permeability [2]: 2.15 10^−6 cm/sec; IC50 (H460 cell line): 79 ± 20 nM; IC50 ([8]; read-out: i20S β1 IC50 ± SD, read 60 to 90 minutes after start): 379 ± 47.7 nM; Plasma half-life ([9]; 10 mg/kg i.v., with and without tariquidar): 72 to 84 min; Brain tissue concentration ([9]; 10 mg/kg i.v., with and without tariquidar, 30 minutes and 2 hours): no quantifiable concentrations were detected
CC(C)C[C@H](NC(=O)[C@@H]1CS(=O)(=O)CCCCCCCCCC(=O)N[C@@H](C(C)C)C(=O)N1)C(=O)[C@@]1(C)CO1 [Compound 40, (3R,6S)-6-Isopropyl-N-((S)-4-methyl-1-((R)-2-methyloxiran-2-yl)-1-oxopentan-2-yl)-5,8-dioxo-1-thia-4,7-diazacycloheptadecane-3-carboxamide 1,1-dioxide] | High | 6.7 ± 0.3 | < 5 | 2.3 | 77 | 3.34 | 2.26 ± 0.26 | 94 after 2 hr % | 23 ± 1.6 | 10.1 | 48.8 | 91 | 89 | 4.8 | 16 ± 2 | 767 ± 177 | 39.4 ± 6.3 | 7.5 ± 0.6 | 144 ± 9.2 | Whole blood retention (Whole blood stability): ~ 15%; microsomal CLint (in vitro): 323 µL/min/mg; Signs of toxicity (mice): lack of toxicity; Levels in brain tissues ([9]; 1 mg/kg i.v.): failed to achieve detectable levels; Plasma concentrations after dosing ([9]; 1 mg/kg i.v.): negligible plasma concentrations beyond 5 minutes post-dosing; Plasma concentrations after dosing ([9]; 10 mg/kg): did not exhibit significant plasma concentrations beyond 5 minutes post-administration; remaining at 5 h (Plasma stability; mouse, plasma, Plasma Stability % remaining, after 5 hr): > 75%
CC(C)C[C@H](NC(=O)[C@@H]1CSCCOCCOCCC(=O)N[C@@H](C(C)C)C(=O)N1)C(=O)[C@@]1(C)CO1 [Compound 41, (9R,12S)-12-Isopropyl-N-((S)-4-methyl-1-((R)-2-methyloxiran-2-yl)-1-oxopentan-2-yl)-11,14-dioxo-1,4-dioxa-7-thia-10,13-diazacyclohexadecane-9-carboxamide] |  | 113 ± 9 |  | 90 ± 8 | 98 | 0.22 |  |  | 277 ± 49.1 | 0.75 | 20.8 | 102 | 101 | 27.6 | 4900 ± 2160 | 484 ± 33 | 110 ± 20.3 | 390 ± 50.7 | 49 ± 2.2 | 
